Source: PubChem BioAssay AID1963828 (Molecular Pharmacology Branch, DTP, NCI, 2024)

Test system: 991263-137-R1-J2-PDC complex spheroid viability
Experiment: Anticancer human tumor 991263-137-R1-J2-PDC patient-derived colon adenocarcinoma cell line growth inhibition [POLQ]
Details: for IC50: curve of first compound; for viability, T/C: stronger effect = lower value
In short: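 PDC + HUVEC + MSC complex spheroids; POLQ inhibitors ± partner drugs; top conc. at/near clinical Cmax, else 10 microM (SN-38 1 microM), half-log dilutions; 37 degrees C, 5% CO2.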

[1] = second compound 0.0316 µM, first compound 0.0316 µM
[2] = second compound 0.0316 µM, first compound 0.1 µM
[3] = second compound 0.0316 µM, first compound 0.316 µM
[4] = second compound 0.0316 µM, first compound 1 µM
[5] = second compound 0.0316 µM, first compound 3.16 µM
[6] = second compound 0.0316 µM, first compound 10 µM
[7] = second compound 0.1 µM, first compound 0.0316 µM
[8] = second compound 0.1 µM, first compound 0.1 µM
[9] = second compound 0.1 µM, first compound 0.316 µM
[10] = second compound 0.1 µM, first compound 1 µM
[11] = second compound 0.1 µM, first compound 3.16 µM
[12] = second compound 0.1 µM, first compound 10 µM
[13] = second compound 0.316 µM, first compound 0.0316 µM
[14] = second compound 0.316 µM, first compound 0.1 µM
[15] = second compound 0.316 µM, first compound 0.316 µM
[16] = second compound 0.316 µM, first compound 1 µM
[17] = second compound 0.316 µM, first compound 3.16 µM
[18] = second compound 0.316 µM, first compound 10 µM
[19] = second compound 1 µM, first compound 0.0316 µM
[20] = second compound 1 µM, first compound 0.1 µM
[21] = second compound 1 µM, first compound 0.316 µM
[22] = second compound 1 µM, first compound 1 µM
[23] = second compound 1 µM, first compound 3.16 µM
[24] = second compound 1 µM, first compound 10 µM
[25] = second compound 3.16 µM, first compound 0.0316 µM
[26] = second compound 3.16 µM, first compound 0.1 µM
[27] = second compound 3.16 µM, first compound 0.316 µM
[28] = second compound 3.16 µM, first compound 1 µM
[29] = second compound 3.16 µM, first compound 3.16 µM
[30] = second compound 3.16 µM, first compound 10 µM
[31] = second compound 10 µM, first compound 0.0316 µM
[32] = second compound 10 µM, first compound 0.1 µM
[33] = second compound 10 µM, first compound 0.316 µM
[34] = second compound 10 µM, first compound 1 µM
[35] = second compound 10 µM, first compound 3.16 µM
[36] = second compound 10 µM, first compound 10 µM
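Note: spheroids exposed to compounds for 7 days before readout.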
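Throughout, for viability, T/C: 100% = DMSO vehicle control viability.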

CC1COCCN1c1cc(-c2ccnn2C)c2ccnc(-c3ccn[nH]3)c2n1 (centres undefined) + COC1C(OC(N)=O)C(O)C(Oc2ccc3c(O)c(NC(=O)c4ccc(O)c(CC=C(C)C)c4)c(=O)oc3c2C)OC1(C)C
IC50 (second compound 0.0316 µM): 745 nM | IC50 (second compound 0.1 µM): 709 nM | IC50 (second compound 0.316 µM): 679 nM | IC50 (second compound 1 µM): 764 nM | IC50 (second compound 3.16 µM): 698 nM | IC50 (second compound 10 µM): 1340 nM | viability, T/C [1]: 92.3% | viability, T/C [2]: 95.7% | viability, T/C [3]: 76.7% | viability, T/C [4]: 40.9% | viability, T/C [5]: 33.4% | viability, T/C [6]: 30% | viability, T/C [7]: 98.2% | viability, T/C [8]: 101% | viability, T/C [9]: 76% | viability, T/C [10]: 40.2% | viability, T/C [11]: 23.1% | viability, T/C [12]: 31.7% | viability, T/C [13]: 97.6% | viability, T/C [14]: 108% | viability, T/C [15]: 63.3% | viability, T/C [16]: 46% | viability, T/C [17]: 26.4% | viability, T/C [18]: 23.4% | viability, T/C [19]: 89.6% | viability, T/C [20]: 104% | viability, T/C [21]: 75.7% | viability, T/C [22]: 43.1% | viability, T/C [23]: 35.7% | viability, T/C [24]: 29.9% | viability, T/C [25]: 88.4% | viability, T/C [26]: 101% | viability, T/C [27]: 69.5% | viability, T/C [28]: 42.2% | viability, T/C [29]: 33% | viability, T/C [30]: 26.9% | viability, T/C [31]: 82.1% | viability, T/C [32]: 95% | viability, T/C [33]: 85.7% | viability, T/C [34]: 54.9% | viability, T/C [35]: 36.9% | viability, T/C [36]: 30.8%

CCc1cc2c(N3CCc4c(cc(Cn5ccnc5)cc4-c4cn(C)nc4C(F)(F)F)C3=O)ccnc2c(OC)n1 + COC1C(OC(N)=O)C(O)C(Oc2ccc3c(O)c(NC(=O)c4ccc(O)c(CC=C(C)C)c4)c(=O)oc3c2C)OC1(C)C
IC50 (second compound 0.0316 µM): > 10000 nM | IC50 (second compound 0.1 µM): > 10000 nM | IC50 (second compound 0.316 µM): > 10000 nM | IC50 (second compound 1 µM): > 10000 nM | IC50 (second compound 3.16 µM): > 10000 nM | IC50 (second compound 10 µM): > 10000 nM | viability, T/C [1]: 99.5% | viability, T/C [2]: 104% | viability, T/C [3]: 110% | viability, T/C [4]: 87.6% | viability, T/C [5]: 102% | viability, T/C [6]: 86.7% | viability, T/C [7]: 104% | viability, T/C [8]: 110% | viability, T/C [9]: 87.4% | viability, T/C [10]: 100% | viability, T/C [11]: 90.8% | viability, T/C [12]: 81% | viability, T/C [13]: 105% | viability, T/C [14]: 108% | viability, T/C [15]: 97.1% | viability, T/C [16]: 104% | viability, T/C [17]: 95.4% | viability, T/C [18]: 99.9% | viability, T/C [19]: 101% | viability, T/C [20]: 107% | viability, T/C [21]: 93.9% | viability, T/C [22]: 86.3% | viability, T/C [23]: 102% | viability, T/C [24]: 90.7% | viability, T/C [25]: 99.2% | viability, T/C [26]: 122% | viability, T/C [27]: 113% | viability, T/C [28]: 96.4% | viability, T/C [29]: 106% | viability, T/C [30]: 107% | viability, T/C [31]: 113% | viability, T/C [32]: 106% | viability, T/C [33]: 108% | viability, T/C [34]: 109% | viability, T/C [35]: 101% | viability, T/C [36]: 91.3%
